Laboratory results taken from US11613533B2, “Compounds useful for inhibiting RET kinase” (Eli Lilly and Company, priority 2020, dated 2023).
Where a chain is given by its changes, count along the chain named.

Assays:
[1] = target: T1, KIF5B-RET WT in HEK293 cells (Homo sapiens, UniProt P07949); experiment: RET cell assay (In-Cell Western, phospho-RET Y1062), wildtype; format: cell-based; settings: HEK293, doxycycline-induced KIF5B-RET WT, 1 hr compound treatment; read-out: EC50, inhibition of intracellular autophosphorylation of RET at tyrosine 1062, wildtype cells
T1 construct: expressed in transfected cells; host or cells: HEK293; the other entry of the earlier key: KIF5B (P33176, Kinesin-1 heavy chain)
T1 sequence (P07949 713-1063 limits assumed): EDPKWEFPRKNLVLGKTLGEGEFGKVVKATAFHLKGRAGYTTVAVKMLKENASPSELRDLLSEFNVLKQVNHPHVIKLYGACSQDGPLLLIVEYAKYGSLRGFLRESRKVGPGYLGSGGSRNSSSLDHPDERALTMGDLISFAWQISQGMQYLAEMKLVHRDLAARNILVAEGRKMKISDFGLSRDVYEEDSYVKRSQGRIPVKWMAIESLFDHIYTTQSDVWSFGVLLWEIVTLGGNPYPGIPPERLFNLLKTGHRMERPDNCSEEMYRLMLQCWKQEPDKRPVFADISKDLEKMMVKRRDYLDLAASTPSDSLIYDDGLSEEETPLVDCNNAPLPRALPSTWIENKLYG
Procedure: (§1) Compounds of formulas (I), (II), and (III) are screened for their ability to inhibit the intracellular autophosphorylation of RET at tyrosine 1062 as detected by In-Cell Western. HEK293 cells containing a doxycycline-inducible plasmid for inducible expression of KIF5B-RET WT and RET mutant forms V804M and G810S are seeded at 25,000 cells/well into black poly-D-lysine pre-coated 384-well plates (Corning, Catalog No. 356697). Expression of KIF5B-RET is induced with doxycycline at 1 μg/mL and cells are incubated at 37° C. overnight. Compounds are prepared in a threefold serial dilution in DMSO before further diluting 1:100 in media prior to the addition to the cells (0.1% final DMSO concentration). Compound treatment is performed for 1 hr at 37° C. followed by fixation of cells with 4% formaldehyde for 20 min at RT and cell permeabilisation with ice-cold MeOH for 10 min at RT. Cells are incubated with Intercept® blocking buffer (Li—COR, Catalogue No. 927-70010) for 1 hr at RT. Incubation with primary antibodies against human phospho-RET (Y1062) (R&D, Catalogue No. AF5009, 1/250 dilution) and human glyceraldehyde-3-phosphate dehydrogenase (clone 6C5, Merck, Catalog No. MAB374, 1/1000 dilution) are performed overnight at 4° C. Incubation with secondary antibodies IRDye® 800CW goat anti-rabbit IgG (Li—COR, Catalogue No. 926-32211, 1/1000 dilution) and IRDye® 680CW goat anti-mouse IgG (Li—COR, Catalogue No. 926-68070, 1/1000 dilution) are performed for 1 hr at RT. All antibody dilutions are done in Intercept® blocking buffer containing 0.05% Tween20. After washing cells with PBS-T (Cell Signaling technology, Catalogue No. 9809), the images are acquired on a Li—COR Odyssey LCx at 700 and 800 nm. Percent of DMSO control is calculated with 100% signal referring to control conditions containing no compound (0.4% DMSO only) and 0% signal represented by conditions containing control compound. The % of DMSO control values are fit to a 4 parameter logistic curve, and the determined EC50 value is defined as the estimated concentration of inhibitor at the inflexion point of the fitted curve.

[2] = target: T2, KIF5B-RET mutant form V804M in HEK293 cells (Homo sapiens, UniProt P07949, V804M); experiment: RET cell assay (In-Cell Western, phospho-RET Y1062), V804M; format: cell-based; settings: HEK293, doxycycline-induced KIF5B-RET V804M, 1 hr compound treatment; read-out: EC50, inhibition of intracellular autophosphorylation of RET at tyrosine 1062, V804M cells
T2 construct: expressed in transfected cells; host or cells: HEK293; the other entry of the earlier key: KIF5B (P33176, Kinesin-1 heavy chain)
T2 sequence (P07949 713-1063 V804M limits assumed): T1 sequence (P07949 713-1063 limits assumed) with V92M
Procedure: as §1

[3] = target: T3, KIF5B-RET mutant form G810S in HEK293 cells (Homo sapiens, UniProt P07949, G810S); experiment: RET cell assay (In-Cell Western, phospho-RET Y1062), G810S; format: cell-based; settings: HEK293, doxycycline-induced KIF5B-RET G810S, 1 hr compound treatment; read-out: EC50, inhibition of intracellular autophosphorylation of RET at tyrosine 1062, G810S cells
T3 construct: expressed in transfected cells; host or cells: HEK293; the other entry of the earlier key: KIF5B (P33176, Kinesin-1 heavy chain)
T3 sequence (P07949 713-1063 G810S limits assumed): T1 sequence (P07949 713-1063 limits assumed) with G98S
Procedure: as §1

melting point | EC50 [1] | EC50 [2] | EC50 [3] | SMILES
128 °C | – | – | – | CC(C(=O)Nc1cc(CC(C)(C)C)no1)c1ccc(-c2nn(C(C)C)c(N)c2C(N)=O)cc1 (single isomer, unassigned; isomer 2) [Example 2, 5-Amino-3-[4-(1-[[3-(2,2-dimethylpropyl)-1,2-oxazol-5-yl]carbamoyl]ethyl)phenyl]-1-isopropylpyrazole-4-carboxamide, Isomer 2]
– | < 100 nM | < 100 nM | < 100 nM | CC(C(=O)Nc1cc(CC(C)(C)C)no1)c1ccc(-c2nn(C3(C)CC3)c(N)c2C(N)=O)nc1 (single isomer, unassigned; isomer 1) [Example 33, 5-Amino-3-[5-[1-[[3-(2,2-dimethylpropyl)-1,2-oxazol-5-yl]carbamoyl]ethyl]pyridin-2-yl]-1-(1-methylcyclopropyl)pyrazole-4-carboxamide, Isomer 1]
– | < 100 nM | < 100 nM | < 100 nM | CC(C(=O)Nc1cc(C(C)(C)C(F)(F)F)on1)c1ccc(-c2nn(C3(C)CC3)c(N)c2C(N)=O)nc1 (single isomer, unassigned; isomer 1) [Example 31, 5-Amino-1-(1-methylcyclopropyl)-3-[5-[(1-[[5-[1,1,1-trifluoro-2-methylpropan-2-yl)-1,2-oxazol-3-yl]carbamoyl]ethyl]pyridin-2-yl]pyrazole-4-carboxamide, Isomer 1]
